In ChEMBL document CHEMBL3046563, “Synthesis and antihypertensive activity evaluation in spontaneously hypertensive rats of nitrendipine analogues” (2011):

Assays:
Format in all cases: functional, Artery
Details in all cases: route intragastric
Rattus norvegicus [1] = experiment: Antihypertensive activity in spontaneously hypertensive Rattus norvegicus (rat) assessed as reduction of systolic blood pressure at 4 mg/kg, ig after 8 hr
Rattus norvegicus [2] = experiment: Antihypertensive activity in spontaneously hypertensive Rattus norvegicus (rat) assessed as reduction of systolic blood pressure at 4 mg/kg, ig after 6 hr
Rattus norvegicus [3] = experiment: Antihypertensive activity in spontaneously hypertensive Rattus norvegicus (rat) assessed as reduction of systolic blood pressure at 4 mg/kg, ig after 4 hr
Rattus norvegicus [4] = experiment: Antihypertensive activity in spontaneously hypertensive Rattus norvegicus (rat) assessed as reduction of systolic blood pressure at 2 mg/kg, ig after 4 hr
Rattus norvegicus [5] = experiment: Antihypertensive activity in spontaneously hypertensive Rattus norvegicus (rat) assessed as reduction of systolic blood pressure at 4 mg/kg, ig after 2 hr
Rattus norvegicus [6] = experiment: Antihypertensive activity in spontaneously hypertensive rat assessed as reduction of systolic blood pressure at 2 mg/kg, ig after 2 hr
Rattus norvegicus [7] = experiment: Antihypertensive activity in spontaneously hypertensive Rattus norvegicus (rat) assessed as reduction of systolic blood pressure at 4 mg/kg, ig after 1 hr
Rattus norvegicus [8] = experiment: Antihypertensive activity in spontaneously hypertensive Rattus norvegicus (rat) assessed as reduction of systolic blood pressure at 2 mg/kg, ig after 1 hr
Rattus norvegicus [9] = experiment: Antihypertensive activity in spontaneously hypertensive Rattus norvegicus (rat) assessed as reduction of systolic blood pressure at 1 mg/kg, ig after 2 hr
Rattus norvegicus [10] = experiment: Antihypertensive activity in spontaneously hypertensive Rattus norvegicus (rat) assessed as reduction of systolic blood pressure at 1 mg/kg, ig after 1 hr

| Compound | Activity (Rattus norvegicus [4]) | Activity (Rattus norvegicus [6]) | Activity (Rattus norvegicus [8]) | also measured |
| --- | --- | --- | --- | --- |
| CCCCCCCOC(=O)C1=C(C)NC(C)=C(C(=O)OC)C1c1cccc([N+](=O)[O-])c1 (racemic) | -4 mmHg | 42 mmHg | 52 mmHg | Activity (Rattus norvegicus [1]): 21 mmHg; Activity (Rattus norvegicus [2]): 45 mmHg; Activity (Rattus norvegicus [3]): 67 mmHg; Activity (Rattus norvegicus [5]): 107 mmHg; Activity (Rattus norvegicus [7]): 119 mmHg |
| CCCOC(=O)C1=C(C)NC(C)=C(C(=O)OC)C1c1cccc([N+](=O)[O-])c1 (configuration not stated) |  |  | 43 mmHg |  |
| CCOC(=O)C1=C(C)NC(C)=C(C(=O)OC)C1c1cccc([N+](=O)[O-])c1 (stereo in doubt; 1) [NITRENDIPINE] |  |  |  | Activity (Rattus norvegicus [8]; 2 mg/kg): 26 mmHg |
| CCCCCCCOC(=O)C1=C(C)NC(C)=C(C(=O)OC)[C@@H]1c1cccc([N+](=O)[O-])c1 | -2 mmHg | 47 mmHg | 93 mmHg |  |
| CCCCCCCCCCOC(=O)C1=C(C)NC(C)=C(C(=O)OC)C1c1cccc([N+](=O)[O-])c1 (configuration not stated) |  |  | 31 mmHg |  |
| CCOC(=O)C1=C(C)NC(C)=C(C(=O)OC)C1c1cccc([N+](=O)[O-])c1 (stereo in doubt; 2) [NITRENDIPINE] | -2 mmHg | 8 mmHg |  | Activity (Rattus norvegicus [9]): 0 mmHg; Activity (Rattus norvegicus [10]): 33 mmHg; Activity (Rattus norvegicus [8]; 2 mg/kg): 39 mmHg |
| CCCCCOC(=O)C1=C(C)NC(C)=C(C(=O)OC)C1c1cccc([N+](=O)[O-])c1 (configuration not stated) |  |  | 44 mmHg |  |
| CCCCCCCCCCCCOC(=O)C1=C(C)NC(C)=C(C(=O)OC)C1c1cccc([N+](=O)[O-])c1 (configuration not stated) |  |  | 17 mmHg |  |
| CCCCCCCCOC(=O)C1=C(C)NC(C)=C(C(=O)OC)C1c1cccc([N+](=O)[O-])c1 (configuration not stated) |  |  | 38 mmHg |  |
